Source: patent US20140005216A1, “Nalmefene for reduction of alcohol consumption in specific target populations” (H. Lundbeck A/S, priority 2012, published 2014)
“Also recorded” adds a separate entry of the source.

Key:
[1] = tested on: patients with alcohol dependence; experiment: Study 12013A: randomised, double blind, placebo controlled 1 year safety study, reduction of alcohol consumption; assay type: in vivo, human; conditions: nalmefene 18 mg as-needed, MMRM
Protocol: (§1) The efficacy of nalmefene on the reduction of alcohol consumption in patients with alcohol dependence (DSM-IV) was evaluated in two efficacy studies (Study 12014A and Study 12023A). Both studies were randomised, double blind, two-parallel group, placebo controlled, and after 6 months of treatment, patients receiving nalmefene were re-randomised to receive either placebo or nalmefene in a 1 month run out period. The efficacy of nalmefene was also evaluated in a randomised, double blind, two parallel group, placebo controlled 1 year safety study (Study 12013A). The studies included 1941 patients, 1144 of whom were treated with nalmefene 18 mg in an as-needed dosing regimen.
(§2) The studies were conducted applying an outpatient setting without preceding detoxification. Higher CIWA withdrawal scores at Screening as well as a history of delirium tremens and seizures would be indicative for the necessity of prior inpatient detoxification. Patients with abuse of substance other than alcohol and subjects with significant depressive or psychotic co-morbidity were excluded.
(§3) The studies included outpatients, aged ≧18 years, with a primary diagnosis of alcohol dependence. A patient was eligible for participation in the study if, in the 4 weeks preceding the Screening Visit (Baseline period), he/she had >6 HDDs, at least a medium DRL (calculated as mean daily alcohol consumption in g/day i.e. >40 g/day for men and >20 g/day for women calculated as mean daily alcohol consumption over the 4 week period preceding the screening visit), and ≦14 consecutive abstinent days. The timeline followback (TLFB) method was used to obtain estimates of the patient's daily drinking.
(§4) The Timeline Follow-back (TLFB) method was used to collect self-reported drinking data (alcohol consumption).
(§5) At the initial visit, the patients' clinical status, social situation, and alcohol consumption pattern were evaluated (based on patient reporting). After a 1- to 2-week observation period the drinking risk level was re-assessed (i.e. the […] daily alcohol consumption over the 1-2 week assessment period was calculated), and treatment with nalmefene was initiated together with counseling with focus on motivating the patients to adhere to the treatment and to change their drinking behavior. In all the studies, a motivational and adherence enhancing intervention, according to the BRENDA model, was administered to all the patients to support the patients in changing their behavior and to enhance adherence to treatment.
The patients' alcohol intake (g/day) was estimated based on national definitions of standard units (subsequently converted into grams of alcohol). To define the standard units, a standard drink conversion card was distributed to each patient at the Screening Visit. Each patient was also provided with a calendar that he/she could use to support his/her input to the TLFB, or he/she could use a personal calendar, if preferred. For all the variables derived from the TLFB data, baseline was defined as the month (that is 4 weeks/28 consecutive days) preceding the Screening Visit. The investigational medicinal product (IMP) was taken as-needed. Each patient was instructed to take a maximum of one tablet on each day the patient perceived a risk of drinking alcohol, preferably 1 to 2 hours prior to the anticipated time of drinking. If the patient had started drinking alcohol without taking nalmefene, the patient was to take one tablet as soon as possible. The dates when nalmefene was taken/not taken were recorded using the TLFB method. The chosen comparator was placebo
The efficacy of nalmefene was measured using two co-primary endpoints: the change in the monthly number of heavy drinking days (HDDs) and the change in the mean daily total alcohol consumption (TAC) per month (=28 days). A HDD was defined as a day with a consumption ≧60 g alcohol for men and ≧40 g for women. […]

[2] = tested on: patients with alcohol dependence; experiment: Study 12023A: randomised, double blind, placebo controlled 6 month efficacy study, reduction of alcohol consumption; assay type: in vivo, human; conditions: nalmefene 18 mg as-needed, MMRM
Protocol: as §1, §2, §3
(§6) The studies were conducted over a 34 week period (12 visits) in total and consisted of four sequential periods: a 2-week screening period, a 24-week double-blind treatment period, a 4-week double-blind placebo-controlled run-out in each of the treatment arms and finally a 4-week safety follow-up. One to two weeks after the Screening Visit the patients were randomised 1:1 to 24 weeks of as-needed, double-blind treatment (Main Treatment Period: MTP) with nalmefene (18 mg) or placebo. The patients who completed 24 weeks of double-blind treatment entered a 4-week, double-blind Run-out Period (ROP). The patients randomised to nalmefene were re-randomised 1:1 to receive nalmefene (18 mg, as-needed) or placebo and the patients randomised to placebo continued on placebo.
as §4, §5
(§7) The patients' alcohol intake (g/day) was estimated based on national definitions of standard units (subsequently converted into grams of alcohol). To define the standard units, a standard drink conversion card was distributed to each patient at the Screening Visit. Each patient was also provided with a calendar that he/she could use to support his/her input to the TLFB, or he/she could use a personal calendar, if preferred. For all the variables derived from the TLFB data, baseline was defined as the month (that is 4 weeks/28 consecutive days) preceding the Screening Visit. The investigational medicinal product (IMP) was taken as-needed. […]

alcohol dependence [3] = conditions: 5, 20 and 40 mg daily doses; Anton et al. 2004; cited from earlier work
[4] = tested on: patients with alcohol dependence; experiment: Three Lundbeck phase III studies (12014A, 12023A, 12013A) taken together, HDDs and TAC versus placebo; assay type: in vivo, human; conditions: for Effect on HDDs and TAC compared to placebo, relative to the total population: all three studies
Source text: The efficacy of nalmefene in the reduction of alcohol consumption in patients with alcohol dependence (DSM-IV) has been evaluated in two efficacy studies (Study 12014A and Study 12023A) and one safety study (Study 12013A) as described in the examples. All three studies were randomized, double blind, parallel-group and placebo-controlled.
as §3, with “aged” for “aged ≧18”
At the initial visit (screening visit), the patients' clinical status, social situation, and alcohol consumption pattern were evaluated. After a 1- to 2-week observation period the drinking risk level was re-assessed by calculating mean daily alcohol consumption in g/day over the 1- to 2-week observation period, and treatment with nalmefene was initiated together with counseling with focus on motivating the patients to adhere to the treatment and to change their drinking behavior.
The efficacy of nalmefene was measured using two co-primary endpoints: the change in the monthly number of heavy drinking days (HDDs) and the change in the mean daily total alcohol consumption (TAC) per month (=28 days).
The efficacy of nalmefene on the reduction of alcohol consumption in patients with alcohol dependence (DSM-IV) was evaluated in two efficacy studies (Study 12014A and Study 12023A). […] The efficacy of nalmefene was also evaluated in a randomised, double blind, two parallel group, placebo controlled 1 year safety study (Study 12013A). […]
as §3, with “The timeline followback (TLFB) method was used to obtain estimates of the patient's daily drinking.” left out
At the initial visit, the patients' clinical status, social situation, and alcohol consumption pattern were evaluated (based on patient reporting). […]

[5] = tested on: patients with alcohol dependence; experiment: Study 12014A: randomised, double blind, placebo controlled 6 month efficacy study, reduction of alcohol consumption; assay type: in vivo, human; conditions: nalmefene 18 mg as-needed, MMRM
Protocol: as §1, §2, §3, §6, §4, §5, §7

alcohol dependence [6] = conditions: 20 to 80 mg daily oral dosing; Mason et al. 1999; cited from earlier work
alcohol dependence [7] = conditions: 20 mg taken when the patient experienced a craving for alcohol; Karhuvaara et al. 2007; cited from earlier work
[8] = High DRL at baseline & randomisation

## C=C1CC[C@@]2(O)[C@H]3Cc4ccc(O)c5c4[C@@]2(CCN3CC2CC2)[C@H]1O5 [nalmefene, 17-(cyclopropylmethyl)-4,5-alpha-epoxy-6-methylenemorphinan-3,14-dial]
[1]; [8]
  Mean difference to placebo in the change from baseline to month 6, HDD: −2.6 days/month
  Mean difference to placebo in the change from baseline to month 6, TAC: -15.3 g/day
[1]; High DRL at baseline
  Mean difference to placebo in the change from baseline to month 6, HDD: −1.1 days/month
  Mean difference to placebo in the change from baseline to month 6, TAC: -5.6 g/day
[1]; Total excl. ERs
  Mean difference to placebo in the change from baseline to month 6, HDD: −1.4 days/month
  Mean difference to placebo in the change from baseline to month 6, TAC: -7.9 g/day
[1]; Total population
  Mean difference to placebo in the change from baseline to month 6, HDD: −0.9 days/month
  Mean difference to placebo in the change from baseline to month 6, TAC: -3.5 g/day
[2]; [8]
  Mean difference to placebo in the change from baseline to month 6, HDD: −2.7 days/month
  Mean difference to placebo in the change from baseline to month 6, TAC: -10.3 g/day
[2]; High DRL at baseline
  Mean difference to placebo in the change from baseline to month 6, HDD: −2.1 days/month
  Mean difference to placebo in the change from baseline to month 6, TAC: -6.6 g/day
[2]; Total excl. ERs
  Mean difference to placebo in the change from baseline to month 6, HDD: −2.0 days/month
  Mean difference to placebo in the change from baseline to month 6, TAC: -7.0 g/day
[2]; Total population
  Mean difference to placebo in the change from baseline to month 6, HDD: −1.7 days/month
  Mean difference to placebo in the change from baseline to month 6, TAC: -5.0 g/day
Alcohol dependence [3]
  Superiority over placebo in the management of alcohol dependence: no evidence of superiority of nalmefene over placebo
[4]; month 6, total study population, two 6 month efficacy studies and 12 month safety study
  Reducing the number of HDDs and TAC versus placebo: superior to placebo
[4]; patients that were not ERs (total excluding Early Reducers)
  Effect on HDDs and TAC compared to placebo, relative to the total population: more pronounced
[4]; patients with a high DRL at baseline
  Effect on HDDs and TAC compared to placebo, relative to the total population: more pronounced
[4]; patients with a high DRL both at baseline and at randomisation
  Effect on HDDs and TAC compared to placebo, relative to the total population: more pronounced; also recorded: even further pronounced
[5]; [8]
  Mean difference to placebo in the change from baseline to month 6, HDD: −3.7 days/month
  Mean difference to placebo in the change from baseline to month 6, TAC: -18.3 g/day
[5]; High DRL at baseline
  Mean difference to placebo in the change from baseline to month 6, HDD: −2.6 days/month
  Mean difference to placebo in the change from baseline to month 6, TAC: -12.2 g/day
[5]; Total excl. ERs
  Mean difference to placebo in the change from baseline to month 6, HDD: −3.1 days/month
  Mean difference to placebo in the change from baseline to month 6, TAC: -14.5 g/day
[5]; Total population
  Mean difference to placebo in the change from baseline to month 6, HDD: −2.3 days/month
  Mean difference to placebo in the change from baseline to month 6, TAC: -11.0 g/day
Alcohol dependence [6]
  Effect in the management of alcohol dependence: good effect
Alcohol dependence [7]
  Effect over placebo in the management of alcohol dependence: good effect of nalmefene over placebo
